Experiments:
Parameters in all cases: scale not given: the % may be the effect or the level left
[1] = target: Bone morphogenetic protein receptor type-1B (Homo sapiens) (UniProt O00238); assay: Inhibition of human ALK6 assessed as enzyme activity at 1 uM using casein as substrate preincubated for 20 mins followed by [gamma-33P]-ATP addition and measured after 120 mins by radiometric Hot-SpotSM Kinase assay relative to control
[2] = target: Casein kinase I isoform delta (Homo sapiens) (UniProt P48730); assay: Inhibition of human CK1delta assessed as enzyme activity at 1 uM using KRRRAL[pS]VASLPGL as substrate preincubated for 20 mins followed by [gamma-33P]-ATP addition and measured after 120 mins by radiometric Hot-SpotSM Kinase assay relative to control
Sequence of Casein kinase I isoform delta (Homo sapiens) (P48730 whole entry, looked up, canonical isoform): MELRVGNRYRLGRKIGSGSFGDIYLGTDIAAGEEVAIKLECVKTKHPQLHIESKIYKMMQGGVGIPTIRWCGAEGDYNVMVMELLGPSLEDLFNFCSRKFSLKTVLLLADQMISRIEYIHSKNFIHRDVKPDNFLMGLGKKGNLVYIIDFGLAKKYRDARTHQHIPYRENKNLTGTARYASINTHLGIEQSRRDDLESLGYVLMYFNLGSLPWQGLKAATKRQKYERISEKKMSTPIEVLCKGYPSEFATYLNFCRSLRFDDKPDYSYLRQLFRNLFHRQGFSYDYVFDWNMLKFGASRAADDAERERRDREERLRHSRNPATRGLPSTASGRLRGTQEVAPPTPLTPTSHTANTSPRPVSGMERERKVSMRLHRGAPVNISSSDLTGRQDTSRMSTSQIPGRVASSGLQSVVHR

[3] = target: Casein kinase I isoform gamma-3 (Homo sapiens) (UniProt Q9Y6M4); assay: Inhibition of human CK1g3 assessed as enzyme activity at 1 uM using KRRRAL[pS]VASLPGL as substrate preincubated for 20 mins followed by [gamma-33P]-ATP addition and measured after 120 mins by radiometric Hot-SpotSM Kinase assay relative to control
Sequence of Casein kinase I isoform gamma-3 (Homo sapiens) (Q9Y6M4 whole entry, looked up, canonical isoform): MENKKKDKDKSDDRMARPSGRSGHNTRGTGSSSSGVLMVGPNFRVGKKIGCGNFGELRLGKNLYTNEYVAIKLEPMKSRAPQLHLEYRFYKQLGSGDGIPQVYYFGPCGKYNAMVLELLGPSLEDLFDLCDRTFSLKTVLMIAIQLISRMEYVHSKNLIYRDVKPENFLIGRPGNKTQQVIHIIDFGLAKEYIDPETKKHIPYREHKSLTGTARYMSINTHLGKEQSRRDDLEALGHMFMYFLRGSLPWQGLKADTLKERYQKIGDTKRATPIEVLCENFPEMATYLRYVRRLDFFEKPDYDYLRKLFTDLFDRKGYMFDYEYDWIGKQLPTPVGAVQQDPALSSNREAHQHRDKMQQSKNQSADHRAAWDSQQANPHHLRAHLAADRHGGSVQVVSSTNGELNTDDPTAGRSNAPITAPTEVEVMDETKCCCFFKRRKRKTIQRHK

[4] = target: T1, Mitogen-activated protein kinase kinase kinase 12 (Homo sapiens) (UniProt Q12852); assay: Inhibition of human DLK/MAP3K12 assessed as enzyme activity at 1 uM using myelin basic protein as substrate preincubated for 20 mins followed by [gamma-33P]-ATP addition and measured after 120 mins by radiometric Hot-SpotSM Kinase assay relative to control
T1 sequence (whole entry): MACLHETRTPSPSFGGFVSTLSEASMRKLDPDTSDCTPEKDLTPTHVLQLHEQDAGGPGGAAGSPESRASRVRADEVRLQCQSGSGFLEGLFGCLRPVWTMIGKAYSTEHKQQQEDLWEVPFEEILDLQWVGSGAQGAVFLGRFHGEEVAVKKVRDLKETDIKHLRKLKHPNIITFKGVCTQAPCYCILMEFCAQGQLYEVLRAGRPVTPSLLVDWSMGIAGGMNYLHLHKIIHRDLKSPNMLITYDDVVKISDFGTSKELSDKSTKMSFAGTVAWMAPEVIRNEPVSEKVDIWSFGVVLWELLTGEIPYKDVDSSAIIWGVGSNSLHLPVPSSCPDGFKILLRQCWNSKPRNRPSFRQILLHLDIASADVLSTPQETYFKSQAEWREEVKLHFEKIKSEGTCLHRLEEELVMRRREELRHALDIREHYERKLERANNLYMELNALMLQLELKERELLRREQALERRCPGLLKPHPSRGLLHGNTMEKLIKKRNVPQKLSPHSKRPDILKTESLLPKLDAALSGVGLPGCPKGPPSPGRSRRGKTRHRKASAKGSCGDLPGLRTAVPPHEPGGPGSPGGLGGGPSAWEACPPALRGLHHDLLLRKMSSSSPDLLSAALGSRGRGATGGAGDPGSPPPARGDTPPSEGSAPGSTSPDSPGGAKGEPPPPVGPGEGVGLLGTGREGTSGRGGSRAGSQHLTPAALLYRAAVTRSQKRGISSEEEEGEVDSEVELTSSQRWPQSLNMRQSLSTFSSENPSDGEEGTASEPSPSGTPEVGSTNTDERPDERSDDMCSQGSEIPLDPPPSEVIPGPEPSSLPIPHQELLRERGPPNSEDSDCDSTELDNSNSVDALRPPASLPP

[5] = target: T2, Myotonin-protein kinase (Homo sapiens) (UniProt Q09013); assay: Inhibition of human DMPK assessed as enzyme activity at 1 uM using KKRNRRLSVA as substrate preincubated for 20 mins followed by [gamma-33P]-ATP addition and measured after 120 mins by radiometric Hot-SpotSM Kinase assay relative to control
T2 sequence (whole entry): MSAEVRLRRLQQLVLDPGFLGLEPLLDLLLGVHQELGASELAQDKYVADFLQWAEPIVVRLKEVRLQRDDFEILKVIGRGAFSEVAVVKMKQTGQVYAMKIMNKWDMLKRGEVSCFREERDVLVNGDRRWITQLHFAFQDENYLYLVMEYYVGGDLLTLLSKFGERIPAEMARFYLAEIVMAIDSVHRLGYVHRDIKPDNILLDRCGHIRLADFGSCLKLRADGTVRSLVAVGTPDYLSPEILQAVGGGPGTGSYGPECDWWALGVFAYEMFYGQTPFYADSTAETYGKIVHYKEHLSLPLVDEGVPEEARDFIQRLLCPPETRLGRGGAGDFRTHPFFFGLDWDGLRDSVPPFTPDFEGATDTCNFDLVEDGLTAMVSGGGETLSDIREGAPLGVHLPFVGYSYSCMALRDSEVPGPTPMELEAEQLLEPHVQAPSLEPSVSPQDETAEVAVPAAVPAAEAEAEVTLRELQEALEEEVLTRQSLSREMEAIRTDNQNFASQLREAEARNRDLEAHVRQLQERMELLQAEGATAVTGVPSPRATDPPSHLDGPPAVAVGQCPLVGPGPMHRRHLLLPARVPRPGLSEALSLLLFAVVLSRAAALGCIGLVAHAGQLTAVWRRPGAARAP

[6] = target: Interleukin-1 receptor-associated kinase 1 (Homo sapiens) (UniProt P51617); assay: Inhibition of human IRAK1 assessed as enzyme activity at 1 uM using myelin basic protein as substrate preincubated for 20 mins followed by [gamma-33P]-ATP addition and measured after 120 mins by radiometric Hot-SpotSM Kinase assay relative to control
Sequence of Interleukin-1 receptor-associated kinase 1 (Homo sapiens) (P51617 whole entry, looked up): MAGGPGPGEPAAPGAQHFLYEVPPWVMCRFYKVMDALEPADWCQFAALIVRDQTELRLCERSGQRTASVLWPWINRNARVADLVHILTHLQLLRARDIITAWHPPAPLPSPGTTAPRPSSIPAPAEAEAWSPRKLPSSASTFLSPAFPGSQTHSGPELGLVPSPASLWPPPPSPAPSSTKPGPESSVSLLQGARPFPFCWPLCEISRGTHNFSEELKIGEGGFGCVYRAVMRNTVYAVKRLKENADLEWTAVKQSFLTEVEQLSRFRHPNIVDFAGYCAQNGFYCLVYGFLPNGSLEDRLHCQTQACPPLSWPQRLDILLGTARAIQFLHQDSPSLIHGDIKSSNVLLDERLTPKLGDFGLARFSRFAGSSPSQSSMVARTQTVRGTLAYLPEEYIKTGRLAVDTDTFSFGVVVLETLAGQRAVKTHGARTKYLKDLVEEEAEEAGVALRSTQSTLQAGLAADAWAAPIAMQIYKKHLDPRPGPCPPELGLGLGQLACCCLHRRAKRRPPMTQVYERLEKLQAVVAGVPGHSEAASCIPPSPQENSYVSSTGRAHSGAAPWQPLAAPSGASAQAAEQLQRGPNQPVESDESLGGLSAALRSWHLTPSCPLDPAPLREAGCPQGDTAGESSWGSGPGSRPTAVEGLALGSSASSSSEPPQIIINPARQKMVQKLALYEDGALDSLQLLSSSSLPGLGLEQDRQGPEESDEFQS

[7] = target: T3, Serine/threonine-protein kinase 3 (Homo sapiens) (UniProt Q13188); assay: Inhibition of human MST2 assessed as enzyme activity at 1 uM using myelin basic protein as substrate preincubated for 20 mins followed by [gamma-33P]-ATP addition and measured after 120 mins by radiometric Hot-SpotSM Kinase assay relative to control
T3 sequence (whole entry): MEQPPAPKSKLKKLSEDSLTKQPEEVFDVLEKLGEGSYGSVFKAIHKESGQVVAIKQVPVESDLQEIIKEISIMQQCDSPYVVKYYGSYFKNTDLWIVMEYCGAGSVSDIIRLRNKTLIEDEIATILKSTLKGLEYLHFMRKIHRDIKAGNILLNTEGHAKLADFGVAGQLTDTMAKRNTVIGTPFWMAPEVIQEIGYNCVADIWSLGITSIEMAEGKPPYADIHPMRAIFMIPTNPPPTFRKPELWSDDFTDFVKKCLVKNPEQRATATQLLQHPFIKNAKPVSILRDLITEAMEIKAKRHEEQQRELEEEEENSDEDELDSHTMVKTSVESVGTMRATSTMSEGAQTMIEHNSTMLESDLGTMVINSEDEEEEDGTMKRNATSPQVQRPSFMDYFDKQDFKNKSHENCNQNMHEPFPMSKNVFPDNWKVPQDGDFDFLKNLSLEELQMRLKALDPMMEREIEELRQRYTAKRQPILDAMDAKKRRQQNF

[8] = target: Tyrosine-protein kinase SYK (Homo sapiens) (UniProt P43405); assay: Inhibition of human SYK assessed as enzyme activity at 1 uM using poly[Glu:Tyr] (4:1) as substrate preincubated for 20 mins followed by [gamma-33P]-ATP addition and measured after 120 mins by radiometric Hot-SpotSM Kinase assay relative to control

Sequence of Bone morphogenetic protein receptor type-1B (Homo sapiens) (O00238 whole entry, canonical isoform): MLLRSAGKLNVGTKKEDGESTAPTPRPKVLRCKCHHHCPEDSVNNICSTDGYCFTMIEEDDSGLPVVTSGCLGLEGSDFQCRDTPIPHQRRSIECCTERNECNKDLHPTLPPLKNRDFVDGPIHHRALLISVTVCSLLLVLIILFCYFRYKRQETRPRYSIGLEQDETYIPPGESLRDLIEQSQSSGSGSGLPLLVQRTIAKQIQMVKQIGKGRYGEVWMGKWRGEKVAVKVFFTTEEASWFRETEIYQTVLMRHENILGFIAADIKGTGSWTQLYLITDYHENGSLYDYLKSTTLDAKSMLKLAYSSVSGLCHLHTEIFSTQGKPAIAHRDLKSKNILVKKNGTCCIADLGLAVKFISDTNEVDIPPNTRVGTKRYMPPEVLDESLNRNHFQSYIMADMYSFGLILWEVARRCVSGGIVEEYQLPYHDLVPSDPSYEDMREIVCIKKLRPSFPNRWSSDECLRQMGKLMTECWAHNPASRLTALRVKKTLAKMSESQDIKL

Row | Structure (SMILES) | Activity [1] [%] | Activity [2] [%] | Activity [3] [%] | Activity [4] [%] | Activity [5] [%] | Activity [6] [%] | Activity [7] [%] | Activity [8] [%]
1 | C[C@H](Nc1ncnc2nc[nH]c12)c1cc2cccc(Cl)c2c(=O)n1-c1ccccc1 | 103 | 97 | 92.9 | 107 | 106 | 102 | 94.5 | 100
2 | CC[C@H](Nc1ncnc2[nH]cnc12)c1nc2cccc(F)c2c(=O)n1-c1ccccc1 | 103 | 96.5 | 93.1 | 110 | 104 | 106 | 96.9 | 103
3 | CC(C)Oc1ccc(-c2nn([C@@H](C)c3oc4ccc(F)cc4c(=O)c3-c3cccc(F)c3)c3ncnc(N)c23)cc1F [UMBRALISIB] | 110 | 97.7 | 95.4 | 127 | 100 | 105 | 97.4 | 102

From ChEMBL document CHEMBL5715954, “Silencing c-Myc translation as a therapeutic strategy through targeting PI3Kδ and CK1ε in hematological malignancies” (Blood, 2017)
